# Laboratory results taken from publication PMC11375437, “Selective labelling of GBA2 in cells with fluorescent β-D-arabinofuranosyl cyclitol aziridines” (Chemical Science, 2024).
# Where “and” joins values, the source holds several entries; their conditions need not be identical. Identical values can stand only once. Like-named read-outs stand apart in the source and are kept apart here.
# Target: T1, GBA2 (Homo sapiens, UniProt Q9HCG7)
# T1 sequence (Q9HCG7 1-927): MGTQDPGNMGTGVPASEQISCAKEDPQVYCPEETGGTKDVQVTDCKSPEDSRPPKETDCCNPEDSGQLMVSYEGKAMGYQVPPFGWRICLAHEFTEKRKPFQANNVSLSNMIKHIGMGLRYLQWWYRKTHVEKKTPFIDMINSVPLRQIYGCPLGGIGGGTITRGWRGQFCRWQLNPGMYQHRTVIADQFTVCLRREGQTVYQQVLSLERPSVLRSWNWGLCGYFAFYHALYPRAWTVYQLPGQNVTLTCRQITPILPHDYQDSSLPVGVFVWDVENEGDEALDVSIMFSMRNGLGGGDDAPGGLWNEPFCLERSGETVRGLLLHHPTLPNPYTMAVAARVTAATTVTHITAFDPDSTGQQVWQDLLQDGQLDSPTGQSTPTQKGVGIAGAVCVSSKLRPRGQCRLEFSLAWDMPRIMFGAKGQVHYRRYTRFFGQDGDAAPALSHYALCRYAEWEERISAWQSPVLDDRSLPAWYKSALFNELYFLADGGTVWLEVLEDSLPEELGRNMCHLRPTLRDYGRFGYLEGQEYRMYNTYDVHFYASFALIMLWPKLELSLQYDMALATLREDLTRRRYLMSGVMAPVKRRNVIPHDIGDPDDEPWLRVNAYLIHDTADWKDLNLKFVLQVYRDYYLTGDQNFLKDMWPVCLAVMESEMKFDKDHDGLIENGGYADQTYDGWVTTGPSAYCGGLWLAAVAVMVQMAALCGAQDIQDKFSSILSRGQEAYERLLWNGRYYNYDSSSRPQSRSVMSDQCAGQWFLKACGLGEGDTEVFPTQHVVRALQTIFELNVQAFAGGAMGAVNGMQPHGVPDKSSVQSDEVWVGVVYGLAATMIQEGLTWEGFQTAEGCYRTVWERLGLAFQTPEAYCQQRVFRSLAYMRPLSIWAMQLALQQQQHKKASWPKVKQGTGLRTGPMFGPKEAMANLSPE
# Experiment: 4MU fluorogenic substrate assay for apparent IC50, GBA2
# Assay type: biochemical
# Set-up: expressed in transfected cells; host or cells: HEK293T GBA1/GBA2 KO (CRISPR/Cas9), GBA2 overexpressed
# Conditions: 4MU-β-D-Glc
# Source text: To identify an ABP that selectively labels human GBA2 over GBA1 and GBA3, a library of cyclophellitol-based ABPs with varying configurations (ESI Fig. S1 ^†) was screened for their selectivity towards human retaining β-glucosidases. For this purpose, we initially assessed the inhibition properties of the compounds using recombinant human GBA1 (rhGBA1, imiglucerase), lysates of cells overexpressing GBA2 or GBA3 (both in combination with knockout of the other retaining β-glucosidases). In a preliminary screen, enzymes were pre-incubated for 30 min with the tested compounds, followed by the addition of the fluorogenic substrate, 4MU-β-D-Glc, and subsequent quantification of released fluorescent 4MU after 30 minutes. This screening brought our attention to a new set of β-D-Araf cyclitol aziridines as potential GBA2 inhibitors. […] On the other hand, the biotin-tagged β-D-Araf compound 6 is a poor inhibitor of all three glucosidases (apparent IC50 > 8 μM). Arabinofuranosyl cyclitol 12–20 with various configurations (α-L-Araf and β-L-Araf) were also evaluated (ESI Fig. S1 ^†).
# Recombinant human GBA1 (rhGBA1, Imiglucerase) was kindly provided by Sanofi Genzyme (Cambridge, MA, USA). 4-Methylumbelliferyl-β-D-glucopyranoside substrates were purchase from Glycosynth (Warrington Cheshire, UK). Protein concentration was measured using the Pierce BCA assay kit (Thermo Fisher Scientific, Waltham, MA, USA). Harvested cells (cell pellets), cell lysates and tissue homogenates not used directly were stored at -80 °C.
# HEK293T (CRL‐3216™) cells were purchased from ATCC (Manassas, VA, USA). HEK293T cells were cultured in DMEM medium (Sigma‐Aldrich), supplied with 10% (v/v) FCS, 0.1% (w/v) penicillin/streptomycin and 1% (v/v) Glutamax, under 37 °C and 5% or 7% CO2. […]
# 2.3 Generation of cells genetically modified for β-glucosidase expression For overexpression of the different β-glucosidases, "wildtype" HEK293T cells, HEK293T cells with GBA2 knockout (KO) or HEK293T cells with both GBA1 and GBA2 KO were used, following by the overexpression (OE) of targeted β-glucosidases using the constructs as described in references.1,2 Either GBA2 or GBA3 were overexpressed in GBA1/GBA2 KO HEK293T (generated by the CRISPR/Cas9 method2) to generate GBA1/2 KOs with GBA2 (or GBA3) for overexpression in HEK293T cells as indicated, or using "wildtype" HEK293T cells containing endogenous GBA1 and GBA2 to overexpress both GBA2 and GBA3, these were generated as described in our previous report.1,2 […]
# Cells were cultured with the method described above to 80-90% confluency, and were isolated, washed with Dulbecco′s phosphate buffered saline (PBS) and subsequently collected using the following method.3 HEK293T and RPE-1 cells were easily detached from the culture plate by trypsin treatment after which some DMEM medium was added. The cells were collected by pipetting and DMEM medium was removed by centrifuging. The cells were washed with cold PBS three times, after which they were centrifuged to remove PBS and then stored at –80 °C for further use or lysed in potassium phosphate buffer (K2HPO4-KH2PO4, 25 mM, pH 6.5, supplemented with 0.1% (v/v) Triton X-100 and protease inhibitor cocktail (EDTA-free, Roche, Basel, Switzerland)) by sonication with a Polytron PT 1300D sonicator (Kinematica, Luzern, Switzerland). After sonication, lysed mixtures were centrifuged at 10,000 x g for 3 min at 4°C, and the supernatants where desired β-glucosidases exist were used for the experiment.
# 2.5 4MU fluorogenic substrate assay for apparent IC50 determination
# 4MU fluorogenic substrate assays (using recombination human rhGBA1 or lysates of HEK293T cells) were conducted in 96-well plates at 37 °C. Samples were diluted with McIlvaine buffer (150 mM citric acid-Na2HPO4) to a final volume of 25 μL, at the appropriate pH for each enzyme. Assays were performed by incubating the samples with 100 μL 4-methylumbelliferyl-β-D-glucopyranoside substrate diluted in McIlvaine buffer for a period of 30 min. […]
# [1] = Apparent IC50 GBA2, GBA1/GBA2 KO GBA2 OE HEK293T cell lysate, 30 min pre-incubation, pH 5.8, n = 3 for β-D-Araf, n = 1 for α-L-Araf and β-L-Araf
# [2] = GBA1/GBA2 KO GBA2 OE HEK293T cell lysate, 30 min pre-incubation, pH 5.8, n = 3 for β-D-Araf, n = 1 for α-L-Araf and β-L-Araf, read-out: Apparent IC50 GBA2
SMILES,IC50 [1],IC50 [2],further results
CC1=CC(C)=[N+]2C1=C(CCCCc1cn(CCCCCCCCN3[C@@H]4[C@H](CO)[C@@H](O)[C@H](O)[C@@H]43)nn1)c1c(C)cc(C)n1[B-]2(F)F (some centres unmarked) [ABP 3],120 to 160 nM and 124 nM,,
COc1ccc(C2=[N+]3C(=C(CCCCc4cn(CCCCCCCCN5[C@@H]6[C@H](CO)[C@@H](O)[C@H](O)[C@@H]65)nn4)c4ccc(-c5ccc(OC)cc5)n4[B-]3(F)F)C=C2)cc1 (some centres unmarked) [ABP 4],120 to 160 nM and 162 nM,,
CN1/C(=C/C=C/C=C/C2=[N+](CCCCCC(=O)NCc3cn(CCCCCCCCN4[C@@H]5[C@H](CO)[C@@H](O)[C@H](O)[C@@H]54)nn3)c3ccccc3C2(C)C)C(C)(C)c2ccccc21 (some centres unmarked) [ABP 5],250 to 300 nM and 264 nM,,
O=C(CCCC[C@@H]1SC[C@@H]2NC(=O)N[C@@H]21)NCc1cn(CCCCCCCCN2[C@@H]3[C@H](CO)[C@@H](O)[C@H](O)[C@@H]32)nn1 (some centres unmarked) [ABP 6],8480 ± 763 nM,,"IC50 (Apparent IC50 GBA2, 30 min pre-incubation): > 8000 nM"
"OC[C@@H]1[C@@H](O)[C@H](O)[C@@H]2N[C@H]12 [Compound 1, β-D-Arabinofuranosyl cyclitol aziridine]",,> 50000 nM,"IC50 (30 min pre-incubation, read-out: Apparent IC50 GBA2): > 50000 nM"
"[N-]=[N+]=NCCCCCCCCN1[C@@H]2[C@H](CO)[C@@H](O)[C@H](O)[C@@H]21 (stereo partly drawn) [Compound 2, β-D-arabinofuranosyl cyclitol aziridine-azidooctyl]",,630 nM,
